Several values for one entry are separate records, joined by “and”; a condition that tells them apart may be missing. Equal values may be shown once. After the bases stand the sugars from the 5' end (letter, count) and the backbone: PS all phosphorothioate, else s phosphorothioate and o phosphodiester by linkage. Methylation of C is not given here. e = 2'-O-(2-methoxyethyl) (MOE); k = constrained ethyl (cEt); d = 2'-deoxy (DNA)
What was measured:
[1] = target: SOD1; details: ASO
[2] = target: MALAT1; details: ASO, A431, 0.005 µM

CAAGTCATCTGCTTTTT (sugars e3 k2 d7 k2 e3, PS)
target mRNA inhibition ([1]; HepG2, 3 µM): 42%

CTTTTAATAGCCTCATAATA (sugars e5 d10 e5, PS)
target mRNA inhibition ([1]; HepG2, 5 µM): 0%

TTACTTTCCTTCTGCTCGAA (sugars e5 d10 e5, PS)
target mRNA inhibition ([1]; HepG2, 3 µM): 30%

TATTGGGCGATCCCAAT (sugars e2 k2 d8 k2 e3, PS)
target mRNA inhibition ([1]; HepG2, 4 µM): 19%

AATTACACTTTTAAGATTAC (sugars e5 d10 e5, PS)
target mRNA inhibition ([1]; HepG2, 5 µM): 1%

ATGCTTCCCCACACCTT (sugars e3 k2 d7 k2 e3, PS)
target mRNA inhibition ([1]; HepG2, 3 µM): 41%

GATAGAGGATTAAAGTG (sugars e3 k2 d7 k2 e3, PS)
target mRNA inhibition ([1]; HepG2, 3 µM): 8%

ACTACATCCAAGGGAAT (sugars e2 k2 d8 k2 e3, PS)
target mRNA inhibition ([1]; HepG2, 4 µM): 42%

ATTACAGTGTTTAATGT (sugars e3 k2 d7 k2 e3, PS)
target mRNA inhibition ([1]; HepG2, 3 µM): 24%

GTGTTTAATGTTTATCA (sugars e2 k2 d9 k2 e2, PS)
target mRNA inhibition ([1]; HepG2, 0.1875 µM): 42%
target mRNA inhibition ([1]; HepG2, 0.75 µM): 68%
target mRNA inhibition ([1]; HepG2, 3 µM): 86%
target mRNA inhibition ([1]; HepG2, 5 µM): 86%
target mRNA inhibition ([1]; HepG2, 12 µM): 89%

GTGTTTAATGTTTATCA (sugars e2 k2 d9 k2 e2, linkages s1 o3 s9 o1 s2)
target mRNA inhibition ([1]; A431, 0.12 µM): 22%
target mRNA inhibition ([1]; A431, 0.6 µM): 57%
target mRNA inhibition ([1]; A431, 3 µM): 73%
target mRNA inhibition ([1]; A431, 15 µM): 84%
target mRNA inhibition ([1]; HepG2, 0.222 µM): 58%
target mRNA inhibition ([1]; HepG2, 0.667 µM): 68%
target mRNA inhibition ([1]; HepG2, 2 µM): 96%
target mRNA inhibition ([1]; HepG2, 6 µM): 83%

GTGAGGACCTGCACTGGTAC (sugars e5 d10 e5, linkages s1 o3 s11 o3 s1)
target mRNA inhibition ([1]; A431, 0.12 µM): 0%
target mRNA inhibition ([1]; A431, 0.6 µM): 17%
target mRNA inhibition ([1]; A431, 3 µM): 0%
target mRNA inhibition ([1]; A431, 15 µM): 16%
target mRNA inhibition ([1]; HepG2, 0.222 µM): 0%
target mRNA inhibition ([1]; HepG2, 0.667 µM): 16%
target mRNA inhibition ([1]; HepG2, 2 µM): 70%
target mRNA inhibition ([1]; HepG2, 3 µM): 50%
target mRNA inhibition ([1]; HepG2, 6 µM): 35%

TTCATCCTTTGGCCCAC (sugars e3 k2 d7 k2 e3, PS)
target mRNA inhibition ([1]; HepG2, 3 µM): 26%

CCTTCACTGGTCCATTA (sugars e3 k2 d7 k2 e3, PS)
target mRNA inhibition ([1]; HepG2, 3 µM): 8%

GGCGATCCCAATTACACCAC (sugars e5 d8 e7, linkages s1 o3 s10 o3 s2)
target mRNA inhibition ([1]; A431, 0.062 µM): 0%
target mRNA inhibition ([1]; A431, 0.185 µM): 9%
target mRNA inhibition ([1]; A431, 0.556 µM): 0%
target mRNA inhibition ([1]; A431, 1.667 µM): 0%
target mRNA inhibition ([1]; A431, 5 µM): 4%
target mRNA inhibition ([1]; A431, 15 µM): 0%
target mRNA inhibition ([1]; SH-SY5Y, 0.062 µM): 5%
target mRNA inhibition ([1]; SH-SY5Y, 0.185 µM): 2%
target mRNA inhibition ([1]; SH-SY5Y, 0.556 µM): 16%
target mRNA inhibition ([1]; SH-SY5Y, 1.667 µM): 25%
target mRNA inhibition ([1]; SH-SY5Y, 5 µM): 36%
target mRNA inhibition ([1]; SH-SY5Y, 15 µM): 61%

CAGTGTTTAATGTTTAT (sugars e2 k2 d9 k2 e2, PS)
target mRNA inhibition ([1]; HepG2, 0.1875 µM): 45%
target mRNA inhibition ([1]; HepG2, 0.75 µM): 73%
target mRNA inhibition ([1]; HepG2, 3 µM): 84%
target mRNA inhibition ([1]; HepG2, 4 µM): 84%
target mRNA inhibition ([1]; HepG2, 5 µM): 85%
target mRNA inhibition ([1]; HepG2, 12 µM): 82% and 87%

CAGGATACATTTCTACAGCT (sugars e5 d10 e5, linkages s1 o3 s11 o3 s1)
target mRNA inhibition ([1]; A431, 0.12 µM): 13%
target mRNA inhibition ([1]; A431, 0.6 µM): 24%
target mRNA inhibition ([1]; A431, 3 µM): 41%
target mRNA inhibition ([1]; A431, 15 µM): 62%
target mRNA inhibition ([1]; HepG2, 0.222 µM): 38%
target mRNA inhibition ([1]; HepG2, 0.667 µM): 70%
target mRNA inhibition ([1]; HepG2, 2 µM): 95%
target mRNA inhibition ([1]; HepG2, 6 µM): 88%

TTAATGTTTATCAGGAT (sugars e2 k2 d9 k2 e2, PS)
target mRNA inhibition ([1]; HepG2, 0.1875 µM): 43%
target mRNA inhibition ([1]; HepG2, 0.75 µM): 78%
target mRNA inhibition ([1]; HepG2, 3 µM): 93%
target mRNA inhibition ([1]; HepG2, 4 µM): 92%
target mRNA inhibition ([1]; HepG2, 12 µM): 98%

TGGTCCATTACTTTCCT (sugars e3 k2 d7 k2 e3, PS)
target mRNA inhibition ([1]; HepG2, 3 µM): 5%

GTGCCATACAGGGTTTT (sugars e3 k2 d7 k2 e3, PS)
target mRNA inhibition ([1]; HepG2, 3 µM): 7%

TCTCACTACAGGTACTT (sugars e2 k2 d9 k2 e2, PS)
target mRNA inhibition ([1]; HepG2, 5 µM): 46%

AATAGACACATCGGCCACAC (sugars e5 d10 e5, PS)
target mRNA inhibition ([1]; HepG2, 5 µM): 30% and 25%

TGTTTATTGGGCGATCC (sugars e2 k2 d8 k2 e3, PS)
target mRNA inhibition ([1]; HepG2, 4 µM): 50%

CCCACACCTTCACTGG (sugars ekddddddddekekee, linkages s1 o1 s8 o3 s2)
target mRNA inhibition ([1]; A431, 0.12 µM): 2%
target mRNA inhibition ([1]; A431, 0.6 µM): 0%
target mRNA inhibition ([1]; A431, 3 µM): 0%
target mRNA inhibition ([1]; A431, 15 µM): 12%
target mRNA inhibition ([1]; HepG2, 0.222 µM): 15%
target mRNA inhibition ([1]; HepG2, 0.667 µM): 31%
target mRNA inhibition ([1]; HepG2, 2 µM): 58%
target mRNA inhibition ([1]; HepG2, 6 µM): 81%

TTAATACCCATCTGTGA (sugars e2 k2 d9 k2 e2, PS)
target mRNA inhibition ([1]; HepG2, 5 µM): 26%

CCACAAGGATCCAAGC (sugars k3 d10 k3, PS)
target mRNA inhibition [2]: -20%

TCTGCGGTTTCCTCAA (sugars k3 d10 k3, PS)
target mRNA inhibition [2]: 49%

GCACAGCGGTACACTC (sugars k3 d10 k3, PS)
target mRNA inhibition [2]: 9%

CAGACCTTCTGAACCG (sugars k3 d10 k3, PS)
target mRNA inhibition [2]: 10%

TCTAATAGCAGCGGGA (sugars k3 d10 k3, PS)
target mRNA inhibition [2]: 16%

CTCACAAGGCAAATCG (sugars k3 d10 k3, PS)
target mRNA inhibition [2]: -12%

AATCGCACTGGCTCCT (sugars k3 d10 k3, PS)
target mRNA inhibition [2]: 25%

AACAAGTAAGCCCCAC (sugars k3 d10 k3, PS)
target mRNA inhibition [2]: 11%

AATGGTAGATTCCGTA (sugars k3 d10 k3, PS)
target mRNA inhibition [2]: 47%

TACTATTGTCCCATAA (sugars k3 d10 k3, PS)
target mRNA inhibition [2]: 22%

CCTCATGCTACTCTTC (sugars k3 d10 k3, PS)
target mRNA inhibition [2]: 54%

AAGACTAAAGGCTTCA (sugars k3 d10 k3, PS)
target mRNA inhibition [2]: 21%

CAAGTAAGCCCCACCC (sugars k3 d10 k3, PS)
target mRNA inhibition [2]: 26%

ATACTTGTCTTAGCTT (sugars k3 d10 k3, PS)
target mRNA inhibition [2]: 60% and 75% and 50%

TTAAAGAGTGTTCGCA (sugars k3 d10 k3, PS)
target mRNA inhibition [2]: 59% and 39%

GAAAAGTGGTTGCCCG (sugars k3 d10 k3, PS)
target mRNA inhibition [2]: 32%

GCGGCCCCCCAGTTGC (sugars k3 d10 k3, PS)
target mRNA inhibition [2]: -16%

AAATTACACCAGTCCT (sugars k3 d10 k3, PS)
target mRNA inhibition [2]: 45%

ATCACCGGAATTCGAT (sugars k3 d10 k3, PS)
target mRNA inhibition [2]: 17%

GCCTTAAAGTTACATT (sugars k3 d10 k3, PS)
target mRNA inhibition [2]: 10%

CTTACTGGGTCTGGCT (sugars k3 d10 k3, PS)
target mRNA inhibition [2]: 41%

TGTTAAGAGAAGCCCA (sugars k3 d10 k3, PS)
target mRNA inhibition [2]: 2%

GCCTCCTCAATCCACT (sugars k3 d10 k3, PS)
target mRNA inhibition [2]: 16%

CCGCCTTTGTGAGGGA (sugars k3 d10 k3, PS)
target mRNA inhibition [2]: 14%

GTTATATTAGGTTCTC (sugars k3 d10 k3, PS)
target mRNA inhibition [2]: 7%

TTTAAGGTTGCATCTG (sugars k3 d10 k3, PS)
target mRNA inhibition [2]: 41%

ACATTAAGTTGGTAAT (sugars k3 d10 k3, PS)
target mRNA inhibition [2]: 4%

CGCTGCGCTTAAGAGG (sugars k3 d10 k3, PS)
target mRNA inhibition [2]: 10%

CTCCTGACAAATTATA (sugars k3 d10 k3, PS)
target mRNA inhibition [2]: 17%

GGGAACACAACTTTTA (sugars k3 d10 k3, PS)
target mRNA inhibition [2]: 33%

CCTTCCGCCGCCTTTG (sugars k3 d10 k3, PS)
target mRNA inhibition [2]: 21%

GCTCTAGTTTCTATAA (sugars k3 d10 k3, PS)
target mRNA inhibition [2]: 27%

GTGAAAACCCACTCTT (sugars k3 d10 k3, PS)
target mRNA inhibition [2]: 10%

AGCAACTCTTCTGATA (sugars k3 d10 k3, PS)
target mRNA inhibition [2]: 30%

TAAATTACACCAGTCC (sugars k3 d10 k3, PS)
target mRNA inhibition [2]: 44%

ACCTTCATCACCAAAT (sugars k3 d10 k3, PS)
target mRNA inhibition [2]: 22%

CAATGCATTCTAATAG (sugars k3 d10 k3, PS)
target mRNA inhibition [2]: 18%

GCCCTTCTATTGGTAT (sugars k3 d10 k3, PS)
target mRNA inhibition [2]: -3%

CAAGGATGTATATAGT (sugars k3 d10 k3, PS)
target mRNA inhibition [2]: 0%

TCTTAACAGCTTATGG (sugars k3 d10 k3, PS)
target mRNA inhibition [2]: 31%

CAAAACGAATTCAGGG (sugars k3 d10 k3, PS)
target mRNA inhibition [2]: 26%

GCCGACCTCACGGATT (sugars k3 d10 k3, PS)
target mRNA inhibition [2]: 45%

ACCTAAACCCACCCCA (sugars k3 d10 k3, PS)
target mRNA inhibition [2]: -1%

GAAATCGGAGCAGCAC (sugars k3 d10 k3, PS)
target mRNA inhibition [2]: 1%

TTACATGTTCCCACCC (sugars k3 d10 k3, PS)
target mRNA inhibition [2]: 19%

CTAAGACTTTAAGTTC (sugars k3 d10 k3, PS)
target mRNA inhibition [2]: 27%

ACTTTAAATTGGTAGC (sugars k3 d10 k3, PS)
target mRNA inhibition [2]: 28%

CCCAAAAGCTCTATAC (sugars k3 d10 k3, PS)
target mRNA inhibition [2]: 6%

TCATTGGGAGTTACTT (sugars k3 d10 k3, PS)
target mRNA inhibition [2]: 57%

TATGACACTTTCCTTG (sugars k3 d10 k3, PS)
target mRNA inhibition [2]: 25%

CATGACCCTACTGAAG (sugars k3 d10 k3, PS)
target mRNA inhibition [2]: 2%

GCTAAGATAGCAGCAC (sugars k3 d10 k3, PS)
target mRNA inhibition [2]: 29%

CAATGGACATCTCTTC (sugars k3 d10 k3, PS)
target mRNA inhibition [2]: 49%

GGACAGTAGGTATAGT (sugars k3 d10 k3, PS)
target mRNA inhibition [2]: 11%

GTAACTTTAAATTGGT (sugars k3 d10 k3, PS)
target mRNA inhibition [2]: 55% and 63%

GAAATCTATTCAATAC (sugars k3 d10 k3, PS)
target mRNA inhibition [2]: 24%

TACAAACTGCTTACAG (sugars k3 d10 k3, PS)
target mRNA inhibition [2]: 39%

GGATGTATATAGTTCA (sugars k3 d10 k3, PS)
target mRNA inhibition [2]: 30%

Source: the OligoGym collection
